Assay results published in article PMC11648825, “Lasamide Containing Sulfonylpiperazines as Effective Agents for the Management of Glaucoma Associated Symptoms” (Chemmedchem, 2024).
Like-named read-outs stand apart in the source and are kept apart here.

Tests used:
Experiment in all cases: stopped-flow CO2 hydrase assay
Assay type in all cases: biochemical
[1] = target: T1, hCA IX (Homo sapiens, UniProt Q16790)
T1 construct: gene CA9; recombinant, made in-house
Source text: stopped-flow CO2 hydrase assay on hCA IX

[2] = target: T2, hCA I (Homo sapiens, UniProt P00915)
T2 construct: gene CA1; purchased from Merck; cytosolic isoform; construct not described
T2 sequence (P00915 2-261): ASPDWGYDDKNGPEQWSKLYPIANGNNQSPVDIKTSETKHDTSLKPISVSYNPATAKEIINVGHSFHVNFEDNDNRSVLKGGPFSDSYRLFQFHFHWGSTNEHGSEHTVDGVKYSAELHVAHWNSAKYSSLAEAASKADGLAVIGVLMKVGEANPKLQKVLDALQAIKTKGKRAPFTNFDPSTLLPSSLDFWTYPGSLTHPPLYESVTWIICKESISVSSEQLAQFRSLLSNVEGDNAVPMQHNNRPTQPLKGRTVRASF
Source text: stopped-flow CO2 hydrase assay on hCA I

[3] = target: T3, hCA XII (Homo sapiens, UniProt O43570)
T3 construct: gene CA12; recombinant, made in-house
T3 sequence (O43570 25-354 limits assumed): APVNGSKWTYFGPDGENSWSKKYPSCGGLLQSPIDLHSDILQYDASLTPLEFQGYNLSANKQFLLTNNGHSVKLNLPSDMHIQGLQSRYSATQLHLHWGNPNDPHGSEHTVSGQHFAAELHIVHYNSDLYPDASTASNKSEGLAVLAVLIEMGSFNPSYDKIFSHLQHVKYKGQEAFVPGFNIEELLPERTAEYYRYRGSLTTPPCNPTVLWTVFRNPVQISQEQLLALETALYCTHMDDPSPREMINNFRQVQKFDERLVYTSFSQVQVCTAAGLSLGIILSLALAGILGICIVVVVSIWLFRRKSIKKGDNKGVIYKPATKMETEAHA
Source text: stopped-flow CO2 hydrase assay on hCA XII

[4] = target: T4, hCA II (Homo sapiens, UniProt P00918)
T4 construct: gene CA2; purchased from Merck; cytosolic isoform; construct not described
Source text: stopped-flow CO2 hydrase assay on hCA II

[5] = CO2 substrate; […] HEPES pH […] Na2SO4, […] min preincubation at room temperature

| SMILES | Ki [1, 5] [nM] | Ki [2, 5] [nM] | Ki [3, 5] [nM] | Ki [4, 5] [nM] | Ki [1] [nM] | Ki [2] [nM] | Ki [3] [nM] | Ki [4] [nM] |
| --- | --- | --- | --- | --- | --- | --- | --- | --- |
| NS(=O)(=O)c1cc(C(=O)O)c(Cl)cc1Cl [compound 1, 2,4‐dichloro‐5‐sulfamoylbenzoic acid] | 2.6 | 0.52 | 7.5 | 0.33 | – | – | – | – |
| CC(C)(C)OC(=O)N1CCN(C(=O)c2cc(S(N)(=O)=O)c(Cl)cc2Cl)CC1 [compound 2, Tert‐butyl 4‐[(2,4‐dichloro‐5‐sulfamoylphenyl)carbonyl]piperazine‐1‐carboxylate] | – | – | – | – | 40.1 | 85.7 | 50.1 | 3.9 |
| NS(=O)(=O)c1cc(C(=O)N2CCN(S(=O)(=O)c3ccccc3)CC2)c(Cl)cc1Cl [compound 4, 2,4‐dichloro‐5‐{[4‐(phenylsulfonyl)piperazin‐1‐yl]carbonyl}benzenesulfonamide] | – | – | – | – | 39.7 | 9.4 | 7.1 | 7.4 |
| Cc1ccc(S(=O)(=O)N2CCN(C(=O)c3cc(S(N)(=O)=O)c(Cl)cc3Cl)CC2)cc1 [compound 5, 2,4‐dichloro‐5‐({4‐[(4‐methylphenyl)sulfonyl]piperazin‐1‐yl}carbonyl)benzenesulfonamide] | – | – | – | – | 340 | 64 | 62.4 | 29 |
| COc1ccc(S(=O)(=O)N2CCN(C(=O)c3cc(S(N)(=O)=O)c(Cl)cc3Cl)CC2)cc1 [compound 6, 2,4‐dichloro‐5‐({4‐[(4‐methoxyphenyl)sulfonyl]piperazin‐1‐yl}carbonyl)benzenesulfonamide] | – | – | – | – | 40.6 | 9.1 | 11.6 | 2.8 |
| NS(=O)(=O)c1cc(C(=O)N2CCN(S(=O)(=O)c3ccc(Cl)cc3)CC2)c(Cl)cc1Cl [compound 7, 2,4‐dichloro‐5‐({4‐[(4‐chlorophenyl)sulfonyl]piperazin‐1‐yl}carbonyl)benzenesulfonamide] | – | – | – | – | 35.8 | 8.2 | 5.2 | 3.4 |
| NS(=O)(=O)c1cc(C(=O)N2CCN(S(=O)(=O)c3ccc([N+](=O)[O-])cc3)CC2)c(Cl)cc1Cl [compound 8, 2,4‐dichloro‐5‐({4‐[(4‐nitrophenyl)sulfonyl]piperazin‐1‐yl}carbonyl)benzenesulfonamide] | – | – | – | – | 39.4 | 79.9 | 7.9 | 71.2 |
| Nc1ccc(S(=O)(=O)N2CCN(C(=O)c3cc(S(N)(=O)=O)c(Cl)cc3Cl)CC2)cc1 [compound 9, 5‐({4‐[(4‐aminophenyl)sulfonyl]piperazin‐1‐yl}carbonyl)‐2,4‐dichlorobenzenesulfonamide] | – | – | – | – | 152 | 5.7 | 6.9 | 2.6 |
| CC(=O)Nc1ccc(S(=O)(=O)N2CCN(C(=O)c3cc(S(N)(=O)=O)c(Cl)cc3Cl)CC2)cc1 [compound 10, 5‐({4‐[(4‐acetylaminophenyl)sulfonyl]piperazin‐1‐yl}carbonyl)‐2,4‐dichlorobenzenesulfonamide] | – | – | – | – | 40.4 | 8 | 7.2 | 5.4 |
| NS(=O)(=O)c1cc(C(=O)N2CCN(S(=O)(=O)c3cccc([N+](=O)[O-])c3)CC2)c(Cl)cc1Cl [compound 11, 2,4‐dichloro‐5‐({4‐[(3‐nitrophenyl)sulfonyl]piperazin‐1‐yl}carbonyl)benzenesulfonamide] | – | – | – | – | 37.7 | 6.2 | 7.8 | 6.6 |
| Nc1cccc(S(=O)(=O)N2CCN(C(=O)c3cc(S(N)(=O)=O)c(Cl)cc3Cl)CC2)c1 [compound 12, 5‐({4‐[(3‐aminophenyl)sulfonyl]piperazin‐1‐yl}carbonyl)‐2,4‐dichlorobenzenesulfonamide] | – | – | – | – | 26.3 | 5.8 | 5.4 | 0.8 |
| NS(=O)(=O)c1cc(C(=O)N2CCN(S(=O)(=O)c3ccccc3[N+](=O)[O-])CC2)c(Cl)cc1Cl [compound 13, 2,4‐dichloro‐5‐({4‐[(2‐nitrophenyl)sulfonyl]piperazin‐1‐yl}carbonyl)benzenesulfonamide] | – | – | – | – | 28.9 | 7.8 | 7.2 | 0.3 |
| Nc1ccccc1S(=O)(=O)N1CCN(C(=O)c2cc(S(N)(=O)=O)c(Cl)cc2Cl)CC1 [compound 14, 5‐({4‐[(2‐aminophenyl)sulfonyl]piperazin‐1‐yl}carbonyl)‐2,4‐dichlorobenzenesulfonamide] | – | – | – | – | 11.4 | 5.4 | 9.6 | 2.8 |
| NS(=O)(=O)c1cc(C(=O)N2CCN(S(=O)(=O)c3ccc(Cl)c(Cl)c3)CC2)c(Cl)cc1Cl [compound 15, 2,4‐dichloro‐5‐({4‐[(3,4‐dichlorophenyl)sulfonyl]piperazin‐1‐yl}carbonyl)benzenesulfonamide] | – | – | – | – | 39 | 7.1 | 9.1 | 5.7 |
| NS(=O)(=O)c1cc(C(=O)N2CCN(S(=O)(=O)Cc3ccccc3)CC2)c(Cl)cc1Cl [compound 16, 5‐{[4‐(benzylsulfonyl)piperazin‐1‐yl]carbonyl}‐2,4‐dichlorobenzenesulfonamide] | – | – | – | – | 273 | 0.54 | 0.87 | 0.07 |
